Measured values from patent US10973912B2, “Treatment for myopathy” (Children's Medical Center Corporation, priority 2015, dated 2021).

How the values were obtained:
[1] = test system: ryr1b homozygous mutant zebrafish; assay: Secondary screen of individual chemicals in ryr1b zebrafish (vitality: survival and touch-evoked escape behavior); type: in vivo, zebrafish (Danio rerio); set-up: key: vitality score, theoretical range 0–60; DMSO controls expected ~50; settings: 2.0 μg/mL from 1 dpf, scored at 5 dpf; average of two replicates of 20 larvae from heterozygous ryr1b matings; score=(#Dead*0)+(#ryr1b*1)+(#Moderate*2)+(#Wild-type*3), max 60, expected 50 in DMSO controls
Description: Each scored compound represents an average of two replicates, consisting of 20 larvae from heterozygous ryr1b matings (n=40). Larvae obtained from wild-type AB matings served as positive controls. […] Significance was determined by pairwise comparisons between control and experimental pools using a Student's t-test. Vitality score=(#Dead*0)+(#ryr1b*1)+(#Moderate*2)+(#Wild-type*3). Standard deviations shown for positive and negative controls were calculated based on results from 5 and 21 independent experiments, respectively.
Primary screen. For the primary screen, twenty embryos (1 dpf) resulting from a mating of heterozygous ryr1b zebrafish were manually sorted into 48-well plates containing 250 μL embryo 1×E3 medium (5.0 mM NaCl, 0.17 mM KCl, 0.33 mM CaCl2*2H2O, 0.33 mM MgSO4*7H2O) and four pooled chemicals from the Prestwick2 chemical library. Each chemical pool was assayed in duplicate using embryos from two independent clutches, for a total of 24 distinct pools tested per plate (FIG. 1). The chemicals were dissolved to a final concentration of 2.0 μg/mL and 0.4% DMSO, which is similar to concentrations other groups have used in zebrafish studies^37,38. As a negative control, twenty embryos from each clutch were cultured without chemicals in vehicle only (0.4% DMSO) (FIG. 1). Larvae obtained from wild-type (Oregon AB) matings served as positive controls in separate plates. All plates containing embryos were incubated at 28.5° C. and maintained as initially treated for 5 days. Dead embryos were removed from wells when observed during the first 4 days of the study. On day 5, dead or “motion-dead” larvae were scored alongside living larvae.
At 5 dpf, pools were scored for their ability to improve the survival and touch-evoked escape behaviors of ryr1b homozygous mutants using the following numeric scoring system: 3=4-6 cm, fast (wild-type); 2=2-4 cm (moderate); 1=<2 cm, slow (ryr1b); 0=no movement (dead) (FIG. 2A). Survival, swimming, and combined endpoints of the primary screen were then examined for their ability to distinguish positive from negative controls. […] Taking into account both experimental replicates (n=40), hit pools contained at least 37 alive larvae on day 5 (i.e., 70-100% of the larvae assumed to be ryr1b mutants survived the duration of the study), and were selected for analysis in a secondary screen.
In the secondary screen, hit pools were separated and tested as 68 individual chemicals. Screening was performed precisely as described for the primary screen with few modifications. Embryos were raised in wells containing 750 μL 1×E3 medium, as opposed to 250 μL, although the final concentration of each compound was maintained at 2.0 μg/mL. […] Vitality scores, weighting survival and swimming ratios appropriately, were calculated as (#Dead*0)+(#ryr1b*1)+(#Moderate*2)+(#Wild-type*3). Theoretical maximum and minimum scores were 60 and 0, respectively, with an expected score of 50 in DMSO-treated controls. Secondary screen hits (P<0.05), considered “candidate” compounds, are currently being examined in dose-response and long-term studies.
The second tier of the chemical screen was performed two years following the primary screen, with a fully established ryr1b^+/− line. Healthier clutches tended to result in better survival of homozygous ryr1b mutants. Median mutant life spans more accurately adhered to the 7-15 day estimate previously published^30. Therefore, in the secondary screen, hit chemical pools were separated into individual compounds and each of 68 total compounds was examined for its ability to positively influence both ryr1b survival and motor function (referred to in combination as “vitality”). […] These included two anti-inflammatory agents (sulfasalazine and ketoprofen), two monoamine oxidase inhibitors (pargyline hydrochloride and tranylcypromine hydrochloride), and two ion channel modulators (metolazone and nimodipine).

ryr1b skeletal muscles = assay: Tetanic force per cross-sectional area in larvae at 5 dpf; type: in vivo, zebrafish (Danio rerio); settings: WT, n=5, 9 biphasic 200 μs pulses at 300 Hz
Description: (§1) Tetanic forces were measured following stimulation with 9 biphasic, 200 μs square-wave pulses at 300 Hz (WT-DMSO: 45.6±4.2 kPa, n=5; WT-NIF: 52.8±4.1 kPa, n=5; ryr1b-DMSO: 11.4±1.3 kPa, n=7; ryr1b-NIF: 25.4±4.0 kPa, n=7). Significance was determined by a one-way ANOVA (F=29.61, P<0.0001), followed by pairwise Tukey's HSD post hoc tests. […] Non-linear regression data of curves were not statistically different, as determined by an extra sum-of-squares F test (P=1.0).
Ryr1b mutants display weaker muscle contractions than wild-type clutchmates as early as 2 dpf^30. To investigate whether […] affects contractile strength in zebrafish, ryr1b mutants and unaffected controls were treated with the compound for several days. At 5 dpf, electrophysiological studies were performed with the help of Dr. Jeffrey Widrick.

wild-type mouse myotubes = assay: Calcium imaging, caffeine dose response of depolarization-induced calcium release; type: cell-based, mouse (C57BL/6N); settings: wild-type background, cultured 5 days with compound
Description: as §1
Primary myoblasts from C57BL/6N mice were isolated and differentiated as described previously^39. Calcium imaging was performed 5 days after differentiation in myotubes loaded with 3 μM Fluo-4-AM (Life Technologies). Myotubes were imaged in imaging buffer (125 mM NaCl, 5 mM KCl, 2 mM CaCl2, 1.2 mM MgSO4, 6 mM glucose, 2 mM Ca^2+, 25 mM Hepes/Tris, pH 7.4) at 490-500 nm with a Stanford Photonics 10 bit digital intensified CCD using a DG4 multi-wavelength light source. Fluorescent emission at 510 was acquired and analyzed using QED Imaging software (QED Software, Pittsburgh, Pa., USA) from regions of interest within each myotube at 30 frames per second. Sensitivity to K^+-depolarization and caffeine-activation were determined by a 5 second perfusion with 5-6 volumes of KCl (10 mM to 60 mM) or caffeine (3 mM to 40 mM). […]

## O=C(N/N=C/c1ccc([N+](=O)[O-])o1)c1ccc(O)cc1 [Nifuroxazide]
[1]
  Vitality Score: 52.0
ryr1b skeletal muscles
  tetanic force per cross-sectional area, wild-type larvae: 52.8±4.1 kPa
wild-type mouse myotubes
  calcium release in response to caffeine: only very modest increases in calcium release
